In patent publication US11713338B2, “Cyclic peptides multimers targeting α-4-β-7 integrin” (priority 2016, dated 2023):

Legend:
[1] = biological target: T1, recombinant integrin α4β7 (Homo sapiens, UniProt P13612+P26010, DEL724-798); assay: Integrin α4β7—MAdCAM-1 ELISA competition assay; format: binding; settings: for ELISA Assay Ratio b1/b7: ratio of a4b1 to a4b7 ELISA IC50; for IC50: read-out: ELISA a4b7 Assay IC50
T1 construct: purchased R&D Systems 5397-A3-050
T1 sequence (P13612 34-970 limits assumed): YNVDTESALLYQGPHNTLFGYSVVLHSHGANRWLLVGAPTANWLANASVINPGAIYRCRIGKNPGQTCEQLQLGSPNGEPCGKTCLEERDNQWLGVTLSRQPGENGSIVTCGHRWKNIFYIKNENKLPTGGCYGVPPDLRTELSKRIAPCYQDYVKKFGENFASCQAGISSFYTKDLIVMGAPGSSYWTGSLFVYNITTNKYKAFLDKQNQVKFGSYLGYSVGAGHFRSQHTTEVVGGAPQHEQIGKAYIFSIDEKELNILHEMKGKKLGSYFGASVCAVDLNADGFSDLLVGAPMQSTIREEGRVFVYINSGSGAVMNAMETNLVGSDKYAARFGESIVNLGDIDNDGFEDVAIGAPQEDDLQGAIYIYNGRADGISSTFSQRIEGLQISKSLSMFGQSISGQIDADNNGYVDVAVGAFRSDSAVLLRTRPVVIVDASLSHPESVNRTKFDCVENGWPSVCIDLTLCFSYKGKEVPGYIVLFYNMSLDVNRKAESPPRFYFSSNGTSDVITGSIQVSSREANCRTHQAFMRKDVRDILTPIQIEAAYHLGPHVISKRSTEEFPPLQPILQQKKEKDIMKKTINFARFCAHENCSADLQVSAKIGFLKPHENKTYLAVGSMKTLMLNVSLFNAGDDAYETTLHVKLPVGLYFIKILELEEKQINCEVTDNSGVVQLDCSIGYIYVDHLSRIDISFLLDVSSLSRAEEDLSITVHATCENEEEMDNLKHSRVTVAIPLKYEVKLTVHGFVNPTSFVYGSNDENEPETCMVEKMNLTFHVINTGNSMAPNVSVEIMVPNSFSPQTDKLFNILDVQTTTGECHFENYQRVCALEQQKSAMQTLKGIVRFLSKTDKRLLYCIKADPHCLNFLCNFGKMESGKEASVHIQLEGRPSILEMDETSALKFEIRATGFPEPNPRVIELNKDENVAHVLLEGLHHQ
T1 sequence (P26010 20-723 limits assumed): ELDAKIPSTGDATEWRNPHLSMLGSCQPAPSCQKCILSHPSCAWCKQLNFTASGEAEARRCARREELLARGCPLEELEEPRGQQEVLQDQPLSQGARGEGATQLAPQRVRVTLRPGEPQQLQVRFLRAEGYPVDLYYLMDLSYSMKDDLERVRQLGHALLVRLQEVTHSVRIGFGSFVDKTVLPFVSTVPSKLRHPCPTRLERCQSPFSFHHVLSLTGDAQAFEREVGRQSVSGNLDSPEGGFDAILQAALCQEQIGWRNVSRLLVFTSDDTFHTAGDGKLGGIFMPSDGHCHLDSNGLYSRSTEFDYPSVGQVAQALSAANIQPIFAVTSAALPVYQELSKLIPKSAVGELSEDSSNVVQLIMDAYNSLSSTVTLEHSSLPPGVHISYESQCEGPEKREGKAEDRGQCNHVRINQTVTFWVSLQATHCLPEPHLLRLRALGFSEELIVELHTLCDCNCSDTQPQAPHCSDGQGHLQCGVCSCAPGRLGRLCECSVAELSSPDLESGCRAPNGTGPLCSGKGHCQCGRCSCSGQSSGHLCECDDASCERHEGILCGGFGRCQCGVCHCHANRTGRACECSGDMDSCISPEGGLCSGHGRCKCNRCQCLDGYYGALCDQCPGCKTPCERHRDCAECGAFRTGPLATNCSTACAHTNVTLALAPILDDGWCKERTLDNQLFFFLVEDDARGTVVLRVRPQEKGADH

[2] = biological target: T2, recombinant integrin α4β1 (Homo sapiens, UniProt P05556+P13612); assay: Integrin α4β1—VCAM-1 competition ELISA; format: binding; settings: read-out: ELISA a4b1 Assay IC50
T2 construct: purchased R&D Systems 5397-A3-050
Protocol: Integrin α4β1—VCAM-1 Competition ELISA
The plate was incubated at 4° C. overnight. […] The plate was then incubated for 1 hour at room temperature. The plate was washed three times with wash buffer (50 mM Tris, 100 mM NaCl, 1 mM MnCl2, 0.05% Tween). To each well, 50 μl of compound diluted in assay buffer was added by transfer from a compound serial dilution plate. […] The plate was incubated at room temperature with shaking (300 rpm) for 2 hours to reach binding equilibrium. Then the plate was washed three times in wash buffer and 100 μl anti-human IgG Fc specific-HRP (Abcam, Ab97225) diluted at 1:2000 in assay buffer was added to each well. The plate was incubated at room temperature for 1 hour under agitation.

T2 sequence (P05556 21-728 limits assumed, one chain of several): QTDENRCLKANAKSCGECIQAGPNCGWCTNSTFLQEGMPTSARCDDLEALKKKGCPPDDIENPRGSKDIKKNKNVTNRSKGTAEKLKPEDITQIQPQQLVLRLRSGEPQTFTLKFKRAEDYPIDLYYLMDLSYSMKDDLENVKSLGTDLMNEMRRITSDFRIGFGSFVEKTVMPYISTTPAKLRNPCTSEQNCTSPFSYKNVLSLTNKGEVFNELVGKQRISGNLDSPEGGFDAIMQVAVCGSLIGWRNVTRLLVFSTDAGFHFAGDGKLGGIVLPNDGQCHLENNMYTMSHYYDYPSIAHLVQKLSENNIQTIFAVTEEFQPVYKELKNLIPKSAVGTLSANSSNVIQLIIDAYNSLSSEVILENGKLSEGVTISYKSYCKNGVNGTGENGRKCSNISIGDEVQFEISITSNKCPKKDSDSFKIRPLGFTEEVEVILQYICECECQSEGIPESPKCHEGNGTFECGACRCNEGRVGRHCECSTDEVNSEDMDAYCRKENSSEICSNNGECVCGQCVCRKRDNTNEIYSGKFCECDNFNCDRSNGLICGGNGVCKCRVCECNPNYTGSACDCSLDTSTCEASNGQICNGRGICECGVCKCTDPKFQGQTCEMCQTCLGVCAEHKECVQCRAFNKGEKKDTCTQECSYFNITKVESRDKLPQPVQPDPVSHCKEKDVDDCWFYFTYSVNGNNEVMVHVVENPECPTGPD

SMILES: CC(C)C[C@@H]1NC(=O)CN(C)C(=O)[C@H](Cc2ccc(I)cc2)NC(=O)[C@@H]2CCCN2[C@H](C(=O)NC(C)(C)C)[C@H](C)NC(=O)[C@H]([C@@H](C)O)NC(=O)[C@H](CC(=O)O)NC1=O [Compound 107]
- ELISA Assay Ratio b1/b7 [1]: 16.0
- IC50 [1]: 0.15 µM
- IC50 [2]: 2.39 µM

SMILES: CC(C)C[C@@H]1NC(=O)[C@H](Cc2csc(-c3ccncc3)n2)NC(=O)[C@@H]2CCCN2[C@H](C(=O)NC(C)(C)C)[C@H](C)NC(=O)[C@H]([C@@H](C)O)NC(=O)[C@H](CC(=O)O)NC1=O [Compound 97]
- ELISA Assay Ratio b1/b7 [1]: 2.5
- IC50 [1]: 0.124 µM
- IC50 [2]: 0.311 µM

SMILES: Cc1cccc(C)c1-c1cccc(C[C@@H]2NC(=O)[C@@H]3CCCN3[C@H](C(=O)NC(C)(C)C)[C@H](C)NC(=O)[C@H]([C@@H](C)O)NC(=O)[C@H](CC(=O)O)NC(=O)[C@H](CC(C)C)NC(=O)C[C@H](CCCCN)NC2=O)c1 [Compound 265]
- ELISA Assay Ratio b1/b7 [1]: 46.2
- IC50 [1]: 0.039 µM
- IC50 [2]: 1.82 µM

SMILES: CC(C)C[C@@H]1NC(=O)c2ccc(-c3cccc4ncccc34)c(c2)CNC(=O)[C@@H]2CCCN2[C@H](C(=O)NC(C)(C)C)[C@H](C)NC(=O)[C@H]([C@@H](C)O)NC(=O)[C@H](CC(=O)O)NC1=O [Compound 347]
- ELISA Assay Ratio b1/b7 [1]: 1.3
- IC50 [1]: 0.023 µM
- IC50 [2]: 0.03 µM

SMILES: CC(C)C[C@@H]1NC(=O)[C@H]2C[C@H](O)CN2C(=O)[C@H](Cc2cscn2)NC(=O)[C@@H]2CCCN2[C@H](C(=O)NC(C)(C)C)[C@H](C)NC(=O)[C@H]([C@@H](C)O)NC(=O)[C@H](CC(=O)O)NC1=O [Compound 151]
- ELISA Assay Ratio b1/b7 [1]: 4.1
- IC50 [1]: 0.053 µM
- IC50 [2]: 0.218 µM

SMILES: CC(C)C[C@@H]1NC(=O)c2cccc(c2)CNC(=O)[C@@H]2CCCN2[C@H](C(=O)NC(C)(C)C)[C@H](C)NC(=O)[C@H]([C@@H](C)O)NC(=O)[C@H](CC(=O)O)NC1=O [Compound 358]
- ELISA Assay Ratio b1/b7 [1]: 8.7
- IC50 [1]: 0.127 µM
- IC50 [2]: 1.11 µM

SMILES: Cc1cccc(C)c1-c1ccc(C[C@@H]2NC(=O)[C@@H]3CCCN3[C@H](C(=O)NC(C)(C)C)[C@H](C)NC(=O)[C@H]([C@@H](C)O)NC(=O)[C@H](CC(=O)O)NC(=O)[C@H](CC(C)C)NC(=O)C[C@H](CCCCN)NC2=O)cc1 [Compound 268]
- ELISA Assay Ratio b1/b7 [1]: 24.6
- IC50 [1]: 0.076 µM
- IC50 [2]: 1.87 µM

SMILES: CC(C)C[C@@H]1NC(=O)[C@H](Cc2cccc3ccccc23)NC(=O)[C@@H]2CCCN2[C@H](C(=O)NC(C)(C)C)[C@H](C)NC(=O)[C@H]([C@@H](C)O)NC(=O)[C@H](CC(=O)O)NC1=O [Compound 9]
- ELISA Assay Ratio b1/b7 [1]: 1.7
- IC50 [1]: 0.061 µM
- IC50 [2]: 0.106 µM

SMILES: COc1cccc(-c2ccccc2C[C@@H]2NC(=O)[C@@H]3CCCN3[C@H](C(=O)NC(C)(C)C)[C@H](C)NC(=O)[C@H]([C@@H](C)O)NC(=O)[C@H](CC(=O)O)NC(=O)[C@H](CC(C)C)NC(=O)[C@H]3CCCCN3C2=O)c1 [Compound 136]
- ELISA Assay Ratio b1/b7 [1]: 6.6
- IC50 [1]: 0.032 µM
- IC50 [2]: 0.209 µM

SMILES: CC(C)C[C@@H]1NC(=O)[C@H](Cc2ccccc2)NC(=O)[C@@H]2C[C@@H](F)CN2[C@H](C(=O)NC(C)(C)C)[C@H](C)NC(=O)[C@H]([C@@H](C)O)NC(=O)[C@H](CC(=O)O)NC1=O [Compound 45]
- ELISA Assay Ratio b1/b7 [1]: 3.2
- IC50 [1]: 0.074 µM
- IC50 [2]: 0.238 µM

SMILES: CC(C)C[C@@H]1NC(=O)[C@H]2CCCCN2C(=O)[C@H](Cc2cscn2)NC(=O)[C@@H]2CCCN2[C@H](C(=O)NC(C)(C)C)[C@H](C)NC(=O)[C@H]([C@@H](C)O)NC(=O)[C@H](CC(=O)O)NC1=O [Compound 131]
- ELISA Assay Ratio b1/b7 [1]: 3.1
- IC50 [1]: 0.026 µM
- IC50 [2]: 0.08 µM

SMILES: CC(C)C[C@@H]1NC(=O)[C@H](Cc2ccc(-c3ccccc3)cc2)NC(=O)[C@@H]2C[C@@H](F)CN2[C@H](C(=O)NC(C)(C)C)[C@H](C)NC(=O)[C@H]([C@@H](C)O)NC(=O)[C@H](CC(=O)O)NC1=O [Compound 46]
- ELISA Assay Ratio b1/b7 [1]: 2.4
- IC50 [1]: 0.106 µM
- IC50 [2]: 0.258 µM

SMILES: CC(C)C[C@@H]1NC(=O)[C@H]2CCCCN2C(=O)[C@@H]2CCCN2[C@H](C(=O)NC(C)(C)C)[C@H](C)NC(=O)[C@H]([C@@H](C)O)NC(=O)[C@H](CC(=O)O)NC1=O [Compound 51]
- ELISA Assay Ratio b1/b7 [1]: 3.3
- IC50 [1]: 0.031 µM
- IC50 [2]: 0.102 µM

SMILES: CC(C)C[C@@H]1NC(=O)CN(C)C(=O)[C@H](Cc2cccc(I)c2)NC(=O)[C@@H]2CCCN2[C@H](C(=O)NC(C)(C)C)[C@H](C)NC(=O)[C@H]([C@@H](C)O)NC(=O)[C@H](CC(=O)O)NC1=O [Compound 106]
- ELISA Assay Ratio b1/b7 [1]: 18.7
- IC50 [1]: 0.059 µM
- IC50 [2]: 1.11 µM

SMILES: CC(C)C[C@@H]1NC(=O)[C@H](CCc2ccccc2)NC(=O)[C@@H]2CCCN2[C@H](C(=O)NC(C)(C)C)[C@H](C)NC(=O)[C@H]([C@@H](C)O)NC(=O)[C@H](CC(=O)O)NC1=O [Compound 6]
- ELISA Assay Ratio b1/b7 [1]: 1.9
- IC50 [1]: 0.103 µM
- IC50 [2]: 0.2 µM

SMILES: CC(C)C[C@@H]1NC(=O)c2ccc(-c3ccncc3)c(c2)CNC(=O)[C@H](Cc2ccc(O)cc2)NC(=O)[C@@H]2CCCN2[C@H](C(=O)NC(C)(C)C)[C@H](C)NC(=O)[C@H]([C@@H](C)O)NC(=O)[C@H](CC(=O)O)NC1=O [Compound 337]
- ELISA Assay Ratio b1/b7 [1]: 2.9
- IC50 [1]: 0.061 µM
- IC50 [2]: 0.177 µM

SMILES: CC(C)C[C@@H]1NC(=O)CN(C)C(=O)[C@H](Cc2ccc(-c3ccccc3)cc2)NC(=O)[C@@H]2CCCN2[C@H](C(=O)NC(C)(C)C)[C@H](C)NC(=O)[C@H]([C@@H](C)O)NC(=O)[C@H](CC(=O)O)NC1=O [Compound 116]
- ELISA Assay Ratio b1/b7 [1]: 8.4
- IC50 [1]: 0.166 µM
- IC50 [2]: 1.39 µM

SMILES: COc1ccccc1-c1ccccc1C[C@@H]1NC(=O)[C@@H]2CCCN2[C@H](C(=O)NC(C)(C)C)[C@H](C)NC(=O)[C@H]([C@@H](C)O)NC(=O)[C@H](CC(=O)O)NC(=O)[C@H](CC(C)C)NC(=O)[C@H]2CCCCN2C1=O [Compound 135]
- ELISA Assay Ratio b1/b7 [1]: 4.9
- IC50 [1]: 0.024 µM
- IC50 [2]: 0.119 µM

SMILES: CC(C)C[C@@H]1NC(=O)[C@@H](CCCCN)NC(=O)[C@H](Cc2ccc(-c3ccccc3)cc2)NC(=O)[C@@H]2CCCN2[C@H](C(=O)NC(C)(C)C)[C@H](C)NC(=O)[C@H]([C@@H](C)O)NC(=O)[C@H](CC(=O)O)NC1=O [Compound 110]
- ELISA Assay Ratio b1/b7 [1]: 21.3
- IC50 [1]: 0.185 µM
- IC50 [2]: 3.92 µM

SMILES: CC(C)C[C@@H]1NC(=O)C[C@H](CCCCN)NC(=O)CN(Cc2ccccc2)C(=O)[C@@H]2CCCN2[C@H](C(=O)NC(C)(C)C)[C@H](C)NC(=O)[C@H]([C@@H](C)O)NC(=O)[C@H](CC(=O)O)NC1=O [Compound 296]
- ELISA Assay Ratio b1/b7 [1]: 94.8
- IC50 [2]: 14.7 µM

SMILES: CC(C)C[C@@H]1NC(=O)C2(Cc3ccccc3C2)NC(=O)[C@@H]2CCCN2[C@H](C(=O)NC(C)(C)C)[C@H](C)NC(=O)[C@H]([C@@H](C)O)NC(=O)[C@H](CC(=O)O)NC1=O [Compound 89]
- ELISA Assay Ratio b1/b7 [1]: 14.4
- IC50 [1]: 0.016 µM
- IC50 [2]: 0.232 µM
